In ChEMBL document CHEMBL5346922, “Discovery of phenylcarbamoyl xanthone derivatives as potent neuroprotective agents for treating ischemic stroke” (Eur J Med Chem, 2023):
Activity calls are given as the source filed them. The calls are words filed in the database; no cut-off is given here.

How the values were obtained:
[1] = tested on: PC-12; assay: Cytotoxicity against rat PC12 cells assessed as reduction in cell viability incubated for 24 hrs by MTT assay; type: functional, cell-based; details: PC-12, 24 h
[2] = tested on: PC-12; assay: Neuroprotective activity against glutamate induced excitotoxicity in rat PC12 cells assessed as cell survival at 20 uM pretreated with glutamate for 24 hrs followed by compound addition and measured after 24 hrs; type: functional; details: read-out: Survival
[3] = tested on: PC-12; assay: Neuroprotective activity in rat PC12 cells assessed as protection against glutamate induced excitotoxicity at 20 uM pretreated with glutamate for 24 hrs followed by compound addition and measured after 24 hrs; type: functional
[4] = tested on: PC-12; assay: Neuroprotective activity against H2O2-induced oxidative damage in rat PC12 cells assessed as increase in cell survival at 20 uM pretreated with H2O2 for 24 hrs followed by compound addition and measured after 24 hrs; type: functional; details: read-out: Survival
[5] = tested on: PC-12; assay: Neuroprotective activity against H2O2-induced oxidative damage in rat PC12 cells at 20 uM pretreated with H2O2 for 24 hrs followed by compound addition and measured after 24 hrs; type: functional
[6] = tested on: PC-12; assay: Neuroprotective activity against glutamate induced excitotoxicity in rat PC12 cells pretreated with glutamate for 24 hrs followed by compound addition and measured after 24 hrs; type: functional, cell-based
[7] = tested on: PC-12; assay: Neuroprotective activity against H2O2-induced oxidative damage in rat PC12 cells pretreated with H2O2 for 24 hrs followed by compound addition and measured after 24 hrs; type: functional, cell-based
[8] = tested on: PC-12; assay: Cytotoxicity against rat PC12 cells assessed as reduction in cell viability at 80 uM incubated for 24 hrs by MTT assay; type: functional
[9] = Acute toxicity in Sprague-Dawley rat assessed as animal death at 4000 mg/kg, po measured for 24 hrs; type: organism-based; details: in vivo
[10] = tested on: Rattus norvegicus; assay: Neuroprotective activity against middle cerebral artery occlusion induced ischemia stroke Sprague-Dawley rat model assessed as Zea-longa score at 60 mg/kg, po measured after 24 hrs (reference value: 2.33 +/- 0.47); type: functional
[11] = tested on: Rattus norvegicus; assay: Neuroprotective activity against middle cerebral artery occlusion induced ischemia stroke Sprague-Dawley rat model assessed as decrease in cerebral infarction area at 60 mg/kg, ip measured after 24 hrs by TTC staining based microscopic assay (reference value: 15.91 +/- 9.06 %); type: functional; parameters: scale not given: the % may be the effect or the level left
[12] = tested on: Rattus norvegicus; assay: Neuroprotective activity against middle cerebral artery occlusion induced ischemia stroke Sprague-Dawley rat model assessed as decrease in brain water content at 60 mg/kg, ip measured after 24 hrs (reference value: 83.17 +/- 2.40%); type: functional; parameters: scale not given: the % may be the effect or the level left
[13] = tested on: Rattus norvegicus; assay: Neuroprotective activity against middle cerebral artery occlusion induced ischemia stroke Sprague-Dawley rat model assessed as reduction in TNF-alpha level in serum at 20 to 60 mg/kg, ip measured after 24 hrs by ELISA analysis; type: functional, organism-based; details: dose 20-60 mg/kg
[14] = tested on: Rattus norvegicus; assay: Neuroprotective activity against middle cerebral artery occlusion induced ischemia stroke Sprague-Dawley rat model assessed as reduction in IL-1beta level in serum at 20 to 60 mg/kg, ip measured after 24 hrs by ELISA analysis; type: functional, organism-based; details: dose 20-60 mg/kg
[15] = tested on: Rattus norvegicus; assay: Neuroprotective activity against middle cerebral artery occlusion induced ischemia stroke Sprague-Dawley rat model assessed as increase in serum SOD level at 20 to 60 mg/kg, ip measured after 24 hrs; type: functional, organism-based; details: dose 20-60 mg/kg
[16] = tested on: Rattus norvegicus; assay: Neuroprotective activity against middle cerebral artery occlusion induced ischemia stroke Sprague-Dawley rat model assessed as […] in serum MDA level at 20 to 60 mg/kg, ip measured after 24 hrs; type: functional, organism-based; details: dose 20-60 mg/kg

COc1c(OC(=O)N(C)c2ccccc2)cc2oc3cc4c(c(O)c3c(=O)c2c1CC=C(C)C)C=CC(C)(C)O4
IC50 [1]: 3.3 µM | viability at 20 µM [2]: 68.6% | Activity [3]: 54.79% | viability at 20 µM [4]: 78.9% | Activity [5]: 52.62% | EC50 [6]: 16.1 µM | EC50 [7]: 19.3 µM | Activity [8]: inactive | Activity [9]: Non-Toxic | Activity [10]: 1.67 | Activity [11]: 1.78% | Activity [12]: 77.41% | Activity [13]: Active | Activity [14]: Active | Activity [15]: Active | Activity [16]: Active
